The nature of the series: in vitro. Particulars: human, plasma.

The structures appear in SMILES notation. Where a name gives a salt, the structure may show the parent alone. Residues, ends and D or L forms follow the SMILES beside them.

For `CN(C)c1cc(NC(=O)Nc2cccc(Cl)c2)c2ccccc2n1`, for the setting “PPB”, the fraction unbound (in general, free concentration divided by total concentration) at 5 h is 0.0014.

As to `CCOc1cc2nnc(C(N)=O)c(Nc3ccc(F)cc3F)c2cc1N1CCN(C)CC1`, the fraction unbound at 5 h (PPB) is 0.0383.

In turn, `COc1ncc(-c2cccc3c2C[C@H](NC(=O)c2ccc(OCCC(F)(F)F)nc2)CO3)cn1` gave a fraction unbound at 5 h (PPB) of 0.0133.

Compound `O=C(Cc1cccs1)Nc1ccon1` had a fraction unbound at 5 h (PPB) of 0.563.

In turn, `NC1=NC(c2ccc(F)cc2)Cc2ccc(F)cc21` (centres undefined) had a fraction unbound at 5 h (PPB) of 0.329.

As to `COc1cnc(-c2ccccn2)nc1N1CCOCC1`, under “PPB”, the fraction unbound at 5 h was 0.339.

In turn, `N#Cc1c(-c2ccc(-c3ccccc3O)cc2)nc2ccncc2c1O` gave a fraction unbound at 5 h (PPB) of 0.0026.

For the setting “PPB”, `CN1CCN(c2ccc3ncc(C(N)=O)c(Nc4ccc(Cl)c(Cl)c4)c3c2)CC1` gave a fraction unbound at 5 h of 0.0581.

For `COc1ccc2c(O)cc(=O)n(Cc3ccc(-c4ccccc4-c4nn[nH]n4)cc3)c2c1`, for the setting “PPB”, the fraction unbound at 5 h was 0.0011.

On to `Cc1cccc(Oc2cc(CN3CCC[C@H](n4cc(C)c(=O)[nH]c4=O)C3)ccc2C(=O)O)c1`, for which, where the note is “PPB”, the fraction unbound at 5 h was 0.0383.

`Cc1ncc(NC(=O)c2cc(NC(=O)c3cccc(Cl)c3)ccc2Cl)s1` had a fraction unbound at 5 h (PPB) of 0.002.

For `CCNC(=O)c1cc2c(-n3nc(C(F)(F)F)cc3C)c(-c3cncc(C(=O)O)c3)cnc2[nH]1`, for the setting “PPB”, the fraction unbound at 5 h was 0.454.

`CC(C)Oc1cc2ncc(C(N)=O)c(Nc3cccc(Cl)c3Cl)c2cc1N1CCN(C)CC1` had a fraction unbound at 5 h (PPB) of 0.0139.

Regarding `COC(=O)N(C)c1c(N)nc(-c2nn(Cc3ccccc3F)c3ncccc23)nc1N` [RIOCIGUAT], the fraction unbound at 5 h is 0.0854.

Regarding `CNc1c(Br)cnc2[nH]c(-c3ccc(OCCN4CCOCC4)cc3)nc12`, the fraction unbound at 5 h (PPB) is 0.0149.

Regarding `CCOc1cc2ncc(C(N)=O)c(Nc3cccc(Cl)c3Cl)c2cc1N1CCCN(C)CC1`, the fraction unbound at 5 h (PPB) was 0.0163.

Where the note is “PPB”, `N=C(N)c1ccc(CNC(=O)C2(NC(=O)[C@H](NCC(=O)O)C3CCCCC3)Cc3ccccc3C2)cc1` had a fraction unbound at 5 h of 0.54.

Compound `Cc1ncc(NC(=O)c2cc(NC(=O)c3cccc(C(F)(F)F)c3)ccc2C)s1` had a fraction unbound at 5 h (PPB) of 0.0119.

As to `Cc1ncc(NC(=O)c2cc(NC(=O)c3cc(F)cc(Cl)c3)ccc2Cl)s1`, the fraction unbound at 5 h (PPB) is 0.004.

On to `CC(=O)S[C@@H]1CC2=CC(=O)CC[C@]2(C)C2CC[C@@]3(C)C(CC[C@@]34CCC(=O)O4)C21` (some centres undefined), for which, under “PPB”, the fraction unbound at 5 h is 0.24.

Compound `Cc1ccc(-c2cc(C(=O)NCc3cn(C)nc3C)c3cc(Br)ccc3n2)cc1` showed a fraction unbound at 5 h (PPB) of 0.0063.

As to `Cc1nccn1-c1ccc(COc2cc(F)cc(C3(C(N)=O)CCOCC3)c2)cc1`, where the note is “PPB”, the fraction unbound at 5 h is 0.101.

With `C[C@@H](c1ncncc1F)[C@](O)(Cn1cncn1)c1ccc(F)cc1F` [VORICONAZOLE], the fraction unbound at 5 h is 0.535.

`O=C(CCS(=O)(=O)c1ccc(Br)cc1)Nc1ccc2c(c1)OCO2` gave a fraction unbound at 5 h of 0.0119.

Take `CN1CCN(c2cc3c(Nc4cccc(Cl)c4Cl)c(C(N)=O)cnc3cc2F)CC1`: the fraction unbound at 5 h (PPB) was 0.0437.

For `CN[C@@H](C)C(=O)N[C@H](C(=O)N[C@H]1CCCN([C@@H]2CCCc3ccccc32)C1)C1CCCCC1`, under “PPB”, the fraction unbound at 5 h was 0.0676.

For the compound `COc1ccc(Cl)cc1NC(=O)CCS(=O)(=O)c1ccc(C)cc1`, the fraction unbound at 5 h (PPB) was 0.0219.

As to `CCOc1cc2ncc(C(N)=O)c(Nc3cc(F)ccc3F)c2cc1N1CCN(C)CC1`, the fraction unbound at 5 h (PPB) was 0.0736.

The compound `COCCOc1cc2ncc(C(N)=O)c(Nc3cccc(Cl)c3Cl)c2cc1N1CCN(C)CC1` had a fraction unbound at 5 h (PPB) of 0.103.

Compound `CC(C)Cc1c(C(=O)C(N)=O)c2c(OCC(=O)NS(C)(=O)=O)cccc2n1Cc1ccccc1` had a fraction unbound at 5 h of 0.0251.

On to `CC(C)(C)Oc1ccc(C(=O)Nc2ccc3sc(CO)nc3c2)cc1`, for which the fraction unbound at 5 h (PPB) was 0.051.

The compound `Cc1cc(Nc2nc(N[C@@H](C)c3ccc(F)cc3)ncc2Cl)n[nH]1` showed a fraction unbound at 5 h (PPB) of 0.009.

`COc1ccc2ncc(=O)n(CCN3CC[C@@H](NCc4ccc5c(n4)NC(=O)CO5)[C@@H](OC)C3)c2c1` showed a fraction unbound at 5 h (PPB) of 0.28.

Regarding `CN[C@@H](C)C(=O)N[C@H](C(=O)N[C@H]1CCCN(CCc2ccc(Br)cc2)C1)C(C)(C)C`, the fraction unbound at 5 h (PPB) was 0.0229.

`COC(=O)CCn1cc(-c2cc(NC3CC3)n3ncc(C#N)c3n2)c2cc(NC(C)=O)ccc21`: under “PPB”, the fraction unbound at 5 h is 0.016.

In the case of `COc1ccc2ncc(=O)n(CCN3CC[C@H](NCc4cc5c(cn4)OCCO5)[C@H](O)C3)c2c1`, under “PPB”, the fraction unbound at 5 h is 0.194.

Take `CC(C)NC(=O)c1cc2c(-n3ccc(C(F)(F)F)n3)c(-c3cncc(C(=O)O)c3)cnc2[nH]1`: for the setting “PPB”, the fraction unbound at 5 h was 0.228.

`COc1cc(OC)c(S(=O)(=O)N2c3ccccc3CCC2C)cc1NC(=O)COCC(=O)O` (centres undefined) gave a fraction unbound at 5 h (PPB) of 0.266.

For the compound `CC(C)Oc1cc2ncc(C(N)=O)c(Nc3cccc(Cl)c3F)c2cc1N1CCN(C)CC1`, where the note is “PPB”, the fraction unbound at 5 h was 0.0488.

Under “PPB”, `O=C(O)c1cn(Cc2ccccc2)c2cc(N3CCNCC3)c(F)cc2c1=O` had a fraction unbound at 5 h of 0.299.

Where the note is “PPB”, `CN[C@@H](C)C(=O)N[C@H](C(=O)N[C@H]1CCCN(CCc2ccc(F)cc2)C1)C(C)(C)C` had a fraction unbound at 5 h of 0.0784.

In turn, `CCCCCCCC(=O)N[C@@H](CCN)C(=O)N[C@H](C(=O)N[C@@H](CCN)C(=O)N[C@H]1CCNC(=O)[C@H]([C@@H](C)O)NC(=O)[C@H](C)NC(=O)[C@H](CCN)NC(=O)[C@H](CC(C)C)NC(=O)[C@@H](Cc2ccccc2)NC(=O)[C@H](CCN)NC1=O)[C@@H](C)O` (HELM PEPTIDE1{[CCCCCCCC(=O)[*:2]].[Dab].T.[Dab].[Dab].[Dab].[dF].L.[Dab].A.T}$PEPTIDE1,PEPTIDE1,5:R3-11:R2$$$V2.0) showed a fraction unbound at 5 h (PPB) of 0.132.

For the setting “PPB”, `CN1CCN(C2=Nc3ccccc3Nc3ccc(OS(=O)(=O)C(F)(F)F)cc32)CC1` showed a fraction unbound at 5 h of 0.0358.

On to `CCNC(=O)c1cc2c(-n3ccc(C(F)(F)F)n3)c(-c3cncc(C(=O)NC)c3)cnc2[nH]1`, for which the unbound share (fraction unbound) at 5 h (PPB) is 0.148.

`Cc1cn([C@H]2CCCN(S(=O)(=O)c3ccc(C#N)c(Oc4cccc(Cl)c4)c3)C2)c(=O)[nH]c1=O` showed a fraction unbound at 5 h (PPB) of 0.0229.

On to `O=C(O)C(c1ccccc1)N1CCO[C@H](CN2CCC(Oc3ccc(Cl)c(Cl)c3)CC2)C1` (some centres undefined), for which the unbound share (fraction unbound) at 5 h (PPB) is 0.0064.

Regarding `CCN(Cc1cccc2ccccc12)c1cc(N2CCOCC2)nc(=O)[nH]1`, the fraction unbound at 5 h (PPB) is 0.0358.

Under “PPB”, `CC(=O)Nc1ccc2c(c1)N(c1cc(NC3CC3)n3ncc(C#N)c3n1)CCC2` had a fraction unbound at 5 h of 0.0262.

Regarding `CCOc1cc2ncc(C(N)=O)c(Nc3cccc(Cl)c3Cl)c2cc1N1CCN(C(C)C)CC1`, the fraction unbound at 5 h (PPB) is 0.0146.

As for `O=C(COc1cccc(Cl)c1)NC1CCN(Cc2ccn(-c3ccc(C(F)(F)F)cc3)c2)CC1`, the fraction unbound at 5 h (PPB) was 0.0072.

`Cc1nccn1-c1ccc(Sc2cccc(C3(C(N)=O)CCOCC3)c2)cc1` showed a fraction unbound at 5 h (PPB) of 0.069.

The compound `CC(C)COc1ccc(-c2cc(=O)[nH]c(N)n2)cc1` showed a fraction unbound at 5 h (PPB) of 0.0374.

Consider `CNC(=O)c1cc(Oc2ccc3c(c2)nc(Nc2ccc(C(F)(F)F)cc2)n3C)ccn1`, for which, where the note is “PPB”, the fraction unbound at 5 h was 0.005.

For `COCCOc1cc2ncc(C(N)=O)c(Nc3ccc(F)cc3F)c2cc1N1CCN(C)CC1`, the fraction unbound at 5 h (PPB) is 0.454.

Compound `COc1cc(OC)c(S(=O)(=O)NCc2ccccc2N2CCC(CC(=O)O)CC2)cc1NC(=O)CCC(=O)O` had a fraction unbound at 5 h (PPB) of 0.0872.

As to `CCCc1cc(C2=N[C@@H](C(=O)NO)CO2)cc(OC)c1OC`, the fraction unbound at 5 h (PPB) is 0.0568.

Turning to `[H]/N=C(/N)c1ccc(NCc2nc3cc(C(=O)N(CCC(=O)O)c4ccccn4)ccc3n2C)cc1` [DABIGATRAN], the fraction unbound at 5 h (PPB) was 0.529.

For `O=C(O)COn1c(-c2ccccc2)nc2ccc([N+](=O)[O-])cc21`, the fraction unbound at 5 h (PPB) is 0.0139.

For the setting “PPB”, `COc1cc(OC)c(S(=O)(=O)N2c3ccccc3Oc3ccccc32)cc1NC(=O)Cc1ccnc(F)c1` gave a fraction unbound at 5 h of 0.0099.

Take `CC(C)COc1ccc(-c2cc(=O)[nH]c(N)n2)cc1C#N`: the fraction unbound at 5 h (PPB) is 0.0409.

The compound `COC(=O)/C=C/C(=O)O` [MONOMETHYL FUMARATE] showed a fraction unbound at 5 h (PPB) of 0.139.

Take `O=C(NC[C@@H](O)CN1CCC(Oc2ccc(Cl)c(Cl)c2)CC1)c1c[nH]c(=O)c2cc(F)ccc12`: the fraction unbound at 5 h (PPB) was 0.0108.

Consider `COc1ccc2c(c1)N(CCN1CCC(NCc3cc4c(cn3)OCCO4)CC1)C(=O)CS2`, for which the fraction unbound at 5 h (PPB) was 0.0948.

On to `COc1cc(OC)c(S(=O)(=O)N2c3ccccc3CCC2C)cc1NC(=O)NCC(=O)O` (centres undefined), for which, for the setting “PPB”, the fraction unbound at 5 h is 0.28.

Regarding `O=C(O)c1ccc2nc(C(F)(F)F)[nH]c2c1`, under “PPB”, the fraction unbound at 5 h was 0.101.

As for `COc1cc2ncc(C(N)=O)c(Nc3ccc(Cl)c(Cl)c3)c2cc1N1CCN(C)CC1`, the fraction unbound at 5 h (PPB) is 0.0358.

In turn, `CCOc1cc2ncc(C(N)=O)c(Nc3ccc(F)cc3F)c2cc1N1CCCN(C2CC2)CC1` had a fraction unbound at 5 h (PPB) of 0.0219.

`CCOc1cc2ncc(C(N)=O)c(Nc3ccc(F)c(Cl)c3)c2cc1N1CCN(C)CC1` gave a fraction unbound at 5 h (PPB) of 0.0343.

With `CCOc1cc(CC(=O)N[C@@H](CC(C)C)c2ccccc2N2CCCCC2)ccc1C(=O)O` [REPAGLINIDE], the fraction unbound at 5 h (PPB) was 0.009.

Take `Cc1ccnc2c1NC(=O)c1cccnc1N2C1CC1` [NEVIRAPINE]: the fraction unbound at 5 h was 0.557.

In turn, `O=C(c1ccccc1)N1CCC(c2nc3ccccc3o2)CC1` had a fraction unbound at 5 h (PPB) of 0.0457.

For the compound `COc1cnc(-c2ccccn2)nc1N(C)C`, where the note is “PPB”, the fraction unbound at 5 h was 0.163.

Compound `COc1cc2ncc(C(N)=O)c(Nc3ccc(Cl)cc3Cl)c2cc1N1CCN(C)CC1` gave a fraction unbound at 5 h (PPB) of 0.0321.

The compound `CC(=O)Nc1cccc2c1c(Oc1ccc(Cl)cc1)c(C)n2CC(=O)O` had a fraction unbound at 5 h (PPB) of 0.124.

`CN[C@@H](C)C(=O)N[C@H](C(=O)N[C@H]1CCCCN(CCc2ccccc2)C1)C1CCCCC1` showed a free fraction (fraction unbound) at 5 h (PPB) of 0.262.

Compound `CN1CCN2c3ccccc3CC3(C(=O)N(C)C(=O)N(C)C3=O)C2C1` (centres undefined) showed a fraction unbound at 5 h of 0.035.

In the case of `C[C@H]1CN(Cc2cc(Cl)ccc2OCC(=O)O)CCN1S(=O)(=O)c1ccccc1`, for the setting “PPB”, the fraction unbound at 5 h is 0.0274.

Take `COc1cccc(C(=O)N2C(C(=O)O)CSC2c2ccccc2Cl)c1` (centres undefined): under “PPB”, the fraction unbound at 5 h is 0.0139.

Under “PPB”, `COc1cc2ncn(-c3cc(OCc4ccccc4S(C)(=O)=O)c(C#N)s3)c2cc1OC` [GSK-319347A] gave a fraction unbound at 5 h of 0.0111.

These data come from ChEMBL document CHEMBL3301361, “Experimental in vitro DMPK and physicochemical data on a set of publicly disclosed compounds”.
